Patent US11071731B2, “Allosteric modulators of the mu opioid receptor” (Chiromics, LLC, priority 2017, dated 2021)
Where two headings read alike, the source gives them in different places.

Legend:
mu opioid receptor (MOR) [1] = biological target: T1, mu opioid receptor (MOR) (Homo sapiens, UniProt P35372); assay: PathHunter β-arrestin recruitment assay, PAM mode with EC20 endomorphin-1; format: cell-based
In short: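 Enzyme fragment complementation read-out: β-gal ED fragment fused to receptor, EA fused to β-arrestin, recruitment restoring β-gal activity detected by chemiluminescence. EC50 and percent maximal response derived for each compound.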

mu opioid receptor (MOR) [2] = biological target: T1, mu opioid receptor (MOR); assay: Hit Hunter cAMP signaling assay (adenylyl cyclase inhibition), PAM mode with EC20 endomorphin-1; format: cell-based
Sprague-Dawley rats [3] = assay: Gastrointestinal transit of charcoal bolus and stomach contents; conditions: morphine 10 mg/kg, compound 9 15, 30, 60 mg/kg
MOR [4] = biological target: T2, MOR (Homo sapiens, UniProt P35372); assay: EM1 concentration-response curves for β-arrestin recruitment with or without compound, full functional allosteric model; format: cell-based
MOR [5] = biological target: T2, MOR; assay: cell-based; conditions: EC20 morphine agonism of MOR
CD1 mice = assay: Warm water tail-flick assay, compound alone (basal EM1 only); format: in vivo; conditions: 15 mg/kg subcutaneous, 30 minutes after dosing, no exogenous EM1
Text: An acute pain model was used to determine the analgesic effect of a MOR PAM administered by itself (i.e., in the absence of exogenous opioid). This approach avoids the complexity of matching the pharmacokinetic profile of endomorphin release in response to a pain-inducing insult with a (1) particular MOR PAM (to account for basal endomorphin analgesis) and (2) the measurement window of the study, as would be required for a chronic pain study. Accordingly, an acute pain model, in which the pharmacodynamic measurement was performed directly after the insult, was employed. This was expected to isolate the low basal levels of EM1 analgesis that existed prior to the insult, thereby eliminating the contribution of the time course of release of endogenous opioids in response to the insult. Mousa et al., supra.
The warm water tail-flick assay was chosen as the acute pain model for the reasons described above. […] Przewlocka et al., (1999), supra. First, minimum and sub-efficacious dose of EM1, applied via intrathecal injection to rats, were identified. […] In addition, the time required for maximal response to an intrathecal injection of EM1 to be observed, as well as the time required for a return to basal levels of antinociception, were determined and likewise found to be in agreement with those found in the literature. […]

ICR rats = assay: Warm water tail-flick assay with intrathecal exogenous EM1; format: in vivo
Experimental: The warm water tail-flick assay was chosen as the acute pain model for the reasons described above. […] Przewlocka et al., (1999), supra. First, minimum and sub-efficacious dose of EM1, applied via intrathecal injection to rats, were identified. The values obtained for the minimum (3 ug/kg) and sub-efficacious dose of EM1 (1 ug/kg) are in agreement with those found in the literature. Horvath (2000), supra. In addition, the time required for maximal response to an intrathecal injection of EM1 to be observed, as well as the time required for a return to basal levels of antinociception, were determined and likewise found to be in agreement with those found in the literature.
. For these experiments, the delay in tail flick induced by EM1 alone was compared to the delay in tail flick when compound 9 was dosed in ICR-rats in combination with intrathecal administration of minimum and sub-efficacious doses of EM1. […]; These effects might be due to any of the following: Ton[Endomorphin], KElim[Endomorphin], Toff[Endomorphin], KI[Endomorphin], and possibly additional mechanisms.
[…]. The ability to rescue a sub-therapeutic dose of the endogenous ligand in a dose- and time-dependent manner with a subtype selective MOR PAM has significant implications for the clinical viability of the use of MOR PAMs in acute and chronic pain settings.

MOR [6] = biological target: T2, MOR; assay: cell-based; conditions: EC20 morphine agonism of MOR; remark: listed apart in the source
Sprague-Dawley rats [7] = assay: Respiratory depression: blood oxygen saturation by pulse oximetry; format: in vivo; conditions: subcutaneous; morphine 10 mg/kg, compound 9 15, 30, 60 mg/kg; 90 minutes
Experimental: Respiratory depression is a significant side effect associated with opioid treatment of acute and chronic pain. Drug-related overdose deaths are often a function of the respiratory depression which occurs with opioid use. Efforts to generate analgesics that dissociate pain relief from side effects are critical to the advancement of public health. […] […].
Blood oxygen saturation was assessed in awake rats with the MouseOx oximeter system (Starr Life Sciences, Holliston, Mass.). Up to 5 samples were measured every 5 minutes for 15 minutes prior to dosing and 90 minutes after dosing. Each animal was habituated to the device over several days prior to the study.

MOR [8] = biological target: T2, MOR; format: cell-based; conditions: β-arrestin; EC20 EM2 agonism of MOR
[9] = Terminal pharmacokinetics: plasma, brain and cerebrospinal fluid concentrations; format: in vivo; conditions: one hour after 15 mg/kg SC or IP, CD-1 mice
Experimental: Given that opioid receptors are highly concentrated in the dorsal root ganglion (DRG) and brain (Martin-Schild et al., supra), terminal pharmacokinetic studies were performed to verify the concentration in the plasma, cerebrospinal fluid and brain.

MOR [10] = biological target: T2, MOR; assay: cell-based; conditions: EC20 Oxycodone agonism of MOR

T1 sequence (P35372 whole entry, the tested form may be a part): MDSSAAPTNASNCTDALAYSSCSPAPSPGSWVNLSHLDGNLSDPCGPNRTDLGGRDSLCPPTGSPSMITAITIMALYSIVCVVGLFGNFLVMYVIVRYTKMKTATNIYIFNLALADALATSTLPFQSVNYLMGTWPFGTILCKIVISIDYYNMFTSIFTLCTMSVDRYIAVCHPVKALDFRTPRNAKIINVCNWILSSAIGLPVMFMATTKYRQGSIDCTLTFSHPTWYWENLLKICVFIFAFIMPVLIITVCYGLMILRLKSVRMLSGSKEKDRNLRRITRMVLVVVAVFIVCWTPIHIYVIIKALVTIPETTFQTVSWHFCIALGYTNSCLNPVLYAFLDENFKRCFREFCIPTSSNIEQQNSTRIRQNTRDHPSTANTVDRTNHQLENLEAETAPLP
T2 sequence (P35372 whole entry): as the sequence (P35372 whole entry, the tested form may be a part) above

Fc1cnc(Cl)nc1N1CCCCC1c1cccc(C(F)(F)F)c1 (single isomer, unassigned) [compound 9]
EC50 (mu opioid receptor (MOR) [1]; EM1-mediated MOR agonism, read-out: RC50 for β-arrestin recruitment): 360 nM
β-arr Max. Resp. (mu opioid receptor (MOR) [1]; maximal response for β-arrestin recruitment): F (F represents a maximal response of > 60%)
EC50 (mu opioid receptor (MOR) [1]; β-arrestin recruitment, read-out: β-arr. EC50): < 700 nM
Max. Response (mu opioid receptor (MOR) [1]; β-arrestin, EC20 EM-1 agonism of MOR): 210
EC50 (mu opioid receptor (MOR) [2]; RC50 for adenylyl cyclase inhibition, EM1-mediated MOR agonism): 590 nM
EC50 (mu opioid receptor (MOR) [2]; cAMP EC50, adenylyl cyclase inhibition): < 700 nM
Max. Response (mu opioid receptor (MOR) [2]; cAMP, EC20 EM-1 agonism of MOR): 75
cAMP Max. Resp. (mu opioid receptor (MOR) [2]; maximal response for adenylyl cyclase inhibition): F (F represents a maximal response of > 60%)
stomach weight (Sprague-Dawley rats [3]; 20 minutes after charcoal): unchanged
GI transit (Sprague-Dawley rats [3]; subcutaneous 1 hour before charcoal): unchanged
effective potency for PAM effect (MOR [4]): 70.8 nM
factor of increase of the affinity (α) of EM1 (MOR [4]): 9
factor of increase of the efficacy (β) of EM1 (MOR [4]): 3
shift in the potency of EM1 (MOR [4]): concentration-dependent and saturable leftward shifts
αβ product, in vitro (MOR [4]; β-arrestin endomorphin responses): 27
EC50 (MOR [5]; RC50, cAMP): 2950 nM
Max. Response (MOR [5]; cAMP): 38
antinociceptive effect, tail-flick latency (CD1 mice): No antinociceptive effects were observed
effect on antinociception of a minimally efficacious dose of EM1 (ICR rats; rat, in vivo): potentiates the effect of suboptimal doses of EM-1
effect on antinociception of a sub-efficacious dose of EM1 (ICR rats; rat, in vivo): potentiates the effect of sub-efficaceous doses of the opioid
αβ product, in vivo effects fit (ICR rats; tail-flick, EM1 3 μg intrathecal (FIG. 12C)): 31.5
EC50 (MOR [6]; RC50, β-arrestin): 10700 nM
Max. Response (MOR [6]; β-arrestin): 456
oxygen saturation / respiratory depression (Sprague-Dawley rats [7]): did not induce respiratory depression
Max. Response (MOR [8]): 138
persistence in brain and plasma [9]: persists in brain and plasma, at therapeutically relevant concentrations
EC50 (MOR [10]; RC50, β-arrestin): 11100 nM
Max. Response (MOR [10]; β-arrestin): 296
